{"source": "paper PMC4914440", "about": "(Pharmacological research, 2016)", "key": {"[1]": {"system": "endogenous β-adrenergic receptor", "assay": "cAMP-Glo assay, untransfected HeLa cells stimulated with", "format": "cell-based, human"}, "[2]": {"details": "cited from earlier work"}, "[3]": {"assay": "Estimated brain concentration, authors' calculation"}, "[4]": {"target": "h5-HT5A (Homo sapiens, UniProt P47898)", "sequence (P47898 whole entry)": "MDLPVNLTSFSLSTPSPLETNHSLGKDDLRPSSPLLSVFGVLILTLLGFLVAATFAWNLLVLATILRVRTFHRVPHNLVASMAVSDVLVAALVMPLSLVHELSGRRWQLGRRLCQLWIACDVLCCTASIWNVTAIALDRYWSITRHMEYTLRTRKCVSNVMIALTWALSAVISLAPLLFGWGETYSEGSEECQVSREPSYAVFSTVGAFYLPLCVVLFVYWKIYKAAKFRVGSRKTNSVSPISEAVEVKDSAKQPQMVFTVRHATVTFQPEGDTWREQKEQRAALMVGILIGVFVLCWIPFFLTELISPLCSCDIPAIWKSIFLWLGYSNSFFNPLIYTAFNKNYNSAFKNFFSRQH", "assay": "Radioligand displacement by a fixed drug concentration, [3H]LSD", "details": "10 μM efavirenz"}, "[5]": {"target": "M3 muscarinic receptor (Homo sapiens, UniProt P20309)", "sequence (P20309 whole entry)": "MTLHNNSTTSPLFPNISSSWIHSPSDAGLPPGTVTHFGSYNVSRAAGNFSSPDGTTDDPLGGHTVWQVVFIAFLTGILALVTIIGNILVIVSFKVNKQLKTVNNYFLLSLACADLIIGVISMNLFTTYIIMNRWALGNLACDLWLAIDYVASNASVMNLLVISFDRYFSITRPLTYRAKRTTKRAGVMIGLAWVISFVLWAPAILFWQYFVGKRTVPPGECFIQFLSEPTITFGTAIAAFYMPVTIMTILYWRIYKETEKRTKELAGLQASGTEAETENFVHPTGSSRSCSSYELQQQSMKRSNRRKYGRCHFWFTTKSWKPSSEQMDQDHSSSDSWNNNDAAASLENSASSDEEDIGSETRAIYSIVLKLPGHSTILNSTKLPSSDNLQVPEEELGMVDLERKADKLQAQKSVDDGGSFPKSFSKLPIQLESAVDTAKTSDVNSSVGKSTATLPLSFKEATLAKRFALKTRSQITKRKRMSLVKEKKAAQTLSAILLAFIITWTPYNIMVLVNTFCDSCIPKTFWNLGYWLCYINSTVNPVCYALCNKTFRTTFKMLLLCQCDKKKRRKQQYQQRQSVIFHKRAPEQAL", "assay": "Intracellular calcium assay, untransfected HEK293 cells with endogenous receptor", "format": "cell-based"}, "[6]": {"details": "cited from earlier work", "remark": "listed apart in the source"}, "[7]": {"system": "untransfected CHO cells", "assay": "Intracellular calcium assay, control cells", "format": "cell-based", "details": "data not shown"}, "[8]": {"system": "NMDA receptors", "details": "10 μM; cited from earlier work"}, "[9]": {"system": "dopamine receptors", "details": "10 μM; cited from earlier work"}, "[10]": {"target": "m5-HT3 (5-HT3A receptor) (Mus musculus, UniProt P23979)", "sequence (P23979 24-489)": "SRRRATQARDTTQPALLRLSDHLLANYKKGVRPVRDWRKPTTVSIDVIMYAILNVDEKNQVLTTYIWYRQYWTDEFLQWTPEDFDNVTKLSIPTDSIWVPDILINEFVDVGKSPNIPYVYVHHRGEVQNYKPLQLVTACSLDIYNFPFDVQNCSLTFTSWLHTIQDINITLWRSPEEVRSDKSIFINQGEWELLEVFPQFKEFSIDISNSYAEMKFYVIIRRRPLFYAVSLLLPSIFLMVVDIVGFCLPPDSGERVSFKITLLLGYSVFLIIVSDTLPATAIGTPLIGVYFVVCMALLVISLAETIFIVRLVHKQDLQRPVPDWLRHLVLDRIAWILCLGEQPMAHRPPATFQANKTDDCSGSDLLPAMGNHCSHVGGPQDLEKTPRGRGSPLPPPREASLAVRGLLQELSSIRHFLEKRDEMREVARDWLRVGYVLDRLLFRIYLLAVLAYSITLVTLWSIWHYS", "assay": "Radioligand displacement by a fixed drug concentration, [3H]BRL-43694", "details": "10 μM efavirenz"}, "[11]": {"details": "cited from earlier work", "remark": "listed apart in the source"}, "[12]": {"target": "T1, 5-HT2C receptor (Homo sapiens, UniProt P28335)", "T1 sequence (P28335 33-458)": "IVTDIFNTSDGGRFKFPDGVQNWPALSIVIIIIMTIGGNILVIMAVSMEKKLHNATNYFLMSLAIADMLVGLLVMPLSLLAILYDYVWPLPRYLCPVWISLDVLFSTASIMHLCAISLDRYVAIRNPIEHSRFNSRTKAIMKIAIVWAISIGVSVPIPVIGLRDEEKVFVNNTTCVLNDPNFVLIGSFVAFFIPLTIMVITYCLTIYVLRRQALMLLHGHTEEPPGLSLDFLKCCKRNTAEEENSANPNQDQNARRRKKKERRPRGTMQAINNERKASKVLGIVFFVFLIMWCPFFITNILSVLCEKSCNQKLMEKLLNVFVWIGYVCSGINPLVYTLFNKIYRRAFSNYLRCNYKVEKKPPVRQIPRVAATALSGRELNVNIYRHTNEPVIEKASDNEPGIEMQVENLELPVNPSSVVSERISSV", "details": "serum free"}}, "data": [{"smiles": "O=C1Nc2ccc(Cl)cc2[C@@](C#CC2CC2)(C(F)(F)F)O1", "note": "[efavirenz, (4S)-6-chloro-4-(2-cyclopropylethynyl)-4-(trifluoromethyl)-2,4-dihydro-1H-3,1-benzoxazin-2-one]", "values": [{"measurement": "effect on (−)-epinephrine stimulated cAMP response", "setting": "[1]", "result": "failed to significantly modulate"}, {"measurement": "bound to plasma proteins", "setting": "[2]", "result": "approximately 99.8%"}, {"measurement": "estimated concentration in brain tissue", "setting": "[3]; 44 nM ÷ 0.002", "result": "~22", "unit": "µM"}, {"measurement": "corresponding brain concentrations", "setting": "[3]; plasma >2.74 μg/mL, assuming rat brain accumulation 4.6", "result": "> 40", "unit": "µM"}, {"measurement": "interaction (radioligand displacement)", "setting": "[4]", "result": "less pronounced or no detectable interaction"}, {"measurement": "concentration partially suppressing ACh mediated activation", "setting": "[5]; EC50 concentration of acetylcholine", "result": "≥ 10", "unit": "µM"}, {"measurement": "extent of block of ACh response", "setting": "[5]; highest concentration that could be tested", "result": "unable to produce a complete block"}, {"measurement": "effect alone on intracellular Ca2+ levels", "setting": "[5]; untransfected HEK293 cells", "result": "had no effect"}, {"measurement": "mean concentration in CSF", "setting": "[6]; across studies", "result": "approximately 44 nM"}, {"measurement": "CSF levels as % of plasma concentrations", "setting": "[6]", "result": 0.52, "unit": "%"}, {"measurement": "Gq-mediated response", "setting": "[7]", "result": "No Gq-mediated response"}, {"measurement": "interaction", "setting": "[8]", "result": "did not have significant interactions"}, {"measurement": "interaction", "setting": "[9]", "result": "did not have significant interactions"}, {"measurement": "displacement of [3H]-granisetron binding", "setting": "[10]", "result": "did not significantly displace"}, {"measurement": "novel open field locomotor activity", "setting": "[11]", "result": "dose-dependently depressed novel open field locomotor activity"}, {"measurement": "concentration completely suppressing the 5-HT agonist effect", "setting": "[12]; 0.03 nM 5-HT (EC50)", "result": "≥ 60", "unit": "µM"}, {"measurement": "concentration inhibiting the 5-HT agonist effect", "setting": "[12]; 0.03 nM 5-HT (EC50)", "result": "≥ 10", "unit": "µM"}, {"measurement": "concentration with no significant effect on 5-HT responses", "setting": "[12]; 0.03 nM 5-HT (EC50)", "result": "up to 3 μM"}, {"measurement": "agonist activity", "setting": "[12]", "result": "did not have any agonist activity"}]}]}
